Data set [1] has as its target T1, wild type AXL (wtAXL) receptor tyrosine kinase (Homo sapiens, UniProt P30530).
T1 construct: WtAXL cDNA was cloned into vector pLXSN(ESK) and transfected into Phoenix E packaging cells; expressed in transfected cells; host or cells: NIH3T3 N7 mouse fibroblasts, retrovirally infected (clone 22)
T1 sequence (P30530 26-894): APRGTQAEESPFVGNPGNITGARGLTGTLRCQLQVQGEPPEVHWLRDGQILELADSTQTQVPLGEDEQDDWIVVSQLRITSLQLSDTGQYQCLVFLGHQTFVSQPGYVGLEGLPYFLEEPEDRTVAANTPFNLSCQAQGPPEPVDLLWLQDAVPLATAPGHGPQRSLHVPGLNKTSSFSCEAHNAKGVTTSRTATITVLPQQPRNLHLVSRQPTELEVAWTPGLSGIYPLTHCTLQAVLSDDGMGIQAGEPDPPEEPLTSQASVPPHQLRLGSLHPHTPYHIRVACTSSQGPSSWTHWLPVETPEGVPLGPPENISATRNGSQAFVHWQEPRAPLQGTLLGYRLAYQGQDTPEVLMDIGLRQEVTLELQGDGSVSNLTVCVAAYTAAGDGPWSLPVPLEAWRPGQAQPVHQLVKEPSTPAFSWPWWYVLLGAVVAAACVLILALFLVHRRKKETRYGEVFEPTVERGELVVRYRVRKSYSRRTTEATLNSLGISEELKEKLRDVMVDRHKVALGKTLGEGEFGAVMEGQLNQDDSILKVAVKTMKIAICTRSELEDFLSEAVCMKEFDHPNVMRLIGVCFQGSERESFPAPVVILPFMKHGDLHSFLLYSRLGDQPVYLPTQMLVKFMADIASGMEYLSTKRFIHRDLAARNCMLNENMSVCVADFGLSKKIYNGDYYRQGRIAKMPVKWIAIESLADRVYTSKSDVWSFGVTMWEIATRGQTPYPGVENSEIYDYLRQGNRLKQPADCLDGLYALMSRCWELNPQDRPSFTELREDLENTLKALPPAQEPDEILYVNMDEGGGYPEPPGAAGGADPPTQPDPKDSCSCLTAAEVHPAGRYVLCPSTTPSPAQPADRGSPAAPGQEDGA
The data set can be described thus: NIH-3T3-AXL cellular tyrosine kinase assay (inhibition of AXL phosphorylation). The settings on record: AXL phosphorylation in NIH-3T3-AXL (clone 22) cells, serum-depleted, 2 h with compound, immunoprecipitation / anti-phosphotyrosine blot. Format: cell-based. The essentials: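 Compound inhibition of AXL autophosphorylation was read by 4G10 immunoblot after anti-AXL immunoprecipitation from lysates. Cells: NIH3T3 lines stably carrying retroviral wild-type human AXL, treated 2 h with compound dilution series.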

Here are results for 24 compounds from patent publication US9206130B2, “Quinoline derivatives as AXL kinase inhibitors” (Max-Planck-Gesellschaft zur Förderung der Wissenschaften …, priority 2008, dated 2015).

The structures appear in SMILES notation.

What is called IC50 is the concentration needed to halve the response being measured. What is called melting point is the temperature, or range, at which the solid turns liquid. In turn, `COc1cc2nccc(Oc3ccc(NS(=O)(=O)c4cccc(Oc5ccccc5)c4)cc3OC)c2cc1OC` [Example A120, N-[4-(6,7-Dimethoxy-quinolin-4-yloxy)-3-methoxy-phenyl]-3-phenoxy-benzenesulfonamide] returned a melting point of 106 to 107 °C. Moreover, the half-maximal inhibitory concentration (IC50) in data set [1] was over 10000 nM.
`Cc1cc(Oc2ccc(NS(=O)(=O)c3ccsc3)cc2)c2cc(F)ccc2n1` [Example B16, Thiophene-3-sulfonic acid [4-(6-fluoro-2-methyl-quinolin-4-yloxy)-phenyl]-amide] registered a melting point of 195 to 196 °C. Also, in data set [1], the IC50 is over 10000 nM.
In the same order, the values of `COc1cc2nccc(Oc3ccc(NS(=O)(=O)c4cc(Cl)cc(Cl)c4OC)c(C)c3)c2cc1OC` [Example A111, 3,5-Dichloro-N-[4-(6,7-dimethoxy-quinolin-4-yloxy)-2-methyl-phenyl]-2-methoxy-benzenesulfonamide] are 159 to 162 °C and over 3000 nM.
Compound `COc1cc2nccc(Oc3ccc(NS(=O)(=O)c4cc(Cl)cc(Cl)c4O)cc3C)c2cc1OC` [Example A79, 3,5-Dichloro-N-[4-(6,7-dimethoxy-quinolin-4-yloxy)-3-methyl-phenyl]-2-hydroxy-benzenesulfonamide] returned a melting point of 113 to 117 °C. The IC50 in data set [1] is 480 nM.
For the compound `Cc1cc(Oc2ccc(NS(=O)(=O)c3ccc(F)c(Cl)c3)c(F)c2)c2cc(F)ccc2n1` [Example B5, 3-Chloro-4-fluoro-N-[2-fluoro-4-(6-fluoro-2-methyl-quinolin-4-yloxy)-phenyl]-benzenesulfonamide], the melting point was 205 to 207 °C. For the same compound, in data set [1], the IC50 is over 10000 nM.
For `COc1cc2c(Oc3ccc(NS(=O)(=O)c4ccccc4C(F)(F)F)cc3F)ccnc2cc1OCCCN1CCC(C)CC1` [Example D17, N-(3-Fluoro-4-{6-methoxy-7-[3-(4-methyl-piperidin-1-yl)-propoxy]-quinolin-4-yloxy}-phenyl)-2-trifluoromethyl-benzenesulfonamide] the same measures were 110 to 112 °C and 46 nM.
Consider `COc1cc2nccc(Oc3ccc(NS(=O)(=O)c4csc5ccccc45)cc3OC)c2cc1OC` [Example A144, Benzo[b]thiophene-3-sulfonic acid [4-(6,7-dimethoxy-quinolin-4-yloxy)-3-methoxy-phenyl]-amide], for which the melting point lay in the range of 144 to 146 °C. Further, the IC50 in data set [1] was over 10000 nM.
For `COc1cc2nccc(Oc3ccc(NS(=O)(=O)c4ccc(Br)cc4C(F)(F)F)c(F)c3)c2cc1OC` [Example A48, 4-Bromo-N-[4-(6,7-dimethoxy-quinolin-4-yloxy)-2-fluoro-phenyl]-2-trifluoromethyl-benzenesulfonamide] the same measures were 242 to 244 °C and 1500 nM.
In turn, `COc1cc2nccc(Oc3ccc(NS(=O)(=O)c4cccc(-c5ccccc5)c4)c(C)c3)c2cc1OC` [Example A89, Biphenyl-3-sulfonic acid [4-(6,7-dimethoxy-quinolin-4-yloxy)-2-methyl-phenyl]-amide] yielded a melting point of 220 to 222 °C. Moreover, in data set [1], the IC50 is 450 nM.
For `COc1cc2nccc(Oc3ccc(NS(=O)(=O)c4cccc5ccccc45)cc3F)c2cc1OC` [Example A100, Naphthalene-1-sulfonic acid [4-(6,7-dimethoxy-quinolin-4-yloxy)-3-fluoro-phenyl]-amide] the same measures were 118 to 120 °C and 740 nM.
For `COc1cc2nccc(Oc3ccc(NS(=O)(=O)c4cc(F)ccc4F)cc3OC)c2cc1OC` [Example A139, N-[4-(6,7-Dimethoxy-quinolin-4-yloxy)-3-methoxy-phenyl]-2,5-difluoro-benzenesulfonamide] the same measures were 222 to 224 °C and 2200 nM.
`Cc1cc(Oc2ccc(NS(=O)(=O)c3cccc(Oc4ccccc4)c3)c(F)c2)c2cccc(C(F)(F)F)c2n1` [Example C03, N-[2-Fluoro-4-(2-methyl-8-trifluoromethyl-quinolin-4-yloxy)-phenyl]-3-phenoxy-benzenesulfonamide] came in with a melting point of 167 to 168 °C. The concentration for half-maximal inhibition (IC50) in data set [1] was over 10000 nM.
For `COc1cc2c(Oc3ccc(NS(=O)(=O)c4ccccc4OC(F)(F)F)cc3F)ccnc2cc1OCCCNC(=O)OC(C)(C)C` [Example D16, (3-{4-[2-Fluoro-4-(2-trifluoromethoxy-benzenesulfonylamino)-phenoxy]-6-methoxy-quinolin-7-yloxy}-propyl)-carbamic acid tert-butyl ester] the same measures were 181 to 183 °C and 271 nM.
`CCOc1ccc(S(=O)(=O)Nc2ccc(Oc3ccnc4cc(OC)c(OC)cc34)cc2F)cc1C` [Example A62, N-[4-(6,7-Dimethoxy-quinolin-4-yloxy)-2-fluoro-phenyl]-4-ethoxy-3-methyl-benzenesulfonamide]: the melting point was 158 to 160 °C. Besides, the IC50 in data set [1] turned out to be 470 nM.
For `COc1cc2nccc(Oc3ccc(NS(=O)(=O)c4cn(C)cn4)c(F)c3)c2cc1OC` [Example A32, 1-Methyl-1H-imidazole-4-sulfonic acid [4-(6,7-dimethoxy-quinolin-4-yloxy)-2-fluoro-phenyl]-amide] the same measures were 215 to 217 °C and over 10000 nM.
For `COc1ccc(S(=O)(=O)Nc2ccc(Oc3cc(C)nc4c(C(F)(F)F)cccc34)c(F)c2)c2ccccc12` [Example C08, 4-Methoxy-naphthalene-1-sulfonic acid [3-fluoro-4-(2-methyl-8-trifluoromethyl-quinolin-4-yloxy)-phenyl]-amide] the same measures were 242 to 244 °C and over 10000 nM.
For `CCCCS(=O)(=O)Nc1ccc(Oc2ccnc3cc(OC)c(OC)cc23)cc1F` [Example A71, Butane-1-sulfonic acid [4-(6,7-dimethoxy-quinolin-4-yloxy)-2-fluoro-phenyl]-amide] the same measures were 164 to 166 °C and over 3000 nM.
As for `Cc1cc(Oc2ccc(NS(=O)(=O)c3ccc(Br)cc3C(F)(F)F)cc2)c2cc(F)ccc2n1` [Example B15, 4-Bromo-N-[4-(6-fluoro-2-methyl-quinolin-4-yloxy)-phenyl]-2-trifluoromethyl-benzenesulfonamide], the melting point is 191 to 193 °C. The IC50 in data set [1] was over 10000 nM.
For `COc1cc2nccc(Oc3ccc(NS(=O)(=O)c4cnc(C)[nH]4)cc3)c2cc1OC` [Example A80, 2-Methyl-3H-imidazole-4-sulfonic acid [4-(6,7-dimethoxy-quinolin-4-yloxy)-phenyl]-amide] the same measures were 268 to 269 °C and over 10000 nM.
`COc1cc(S(=O)(=O)Nc2ccc(Oc3ccnc4cc(OC)c(OC)cc34)c(OC)c2)ccc1F` [Example A121, N-[4-(6,7-Dimethoxy-quinolin-4-yloxy)-3-methoxy-phenyl]-4-fluoro-3-methoxy-benzenesulfonamide] registered a melting point of 109 to 110 °C. For the same compound, in data set [1], the IC50 was over 10000 nM.
For `COc1cc2c(Oc3ccc(NS(=O)(=O)c4ccccc4OC(F)(F)F)c(C)c3)ccnc2cc1OCCN1CCOCC1` [Example D08, N-{4-[6-Methoxy-7-(2-morpholin-4-yl-ethoxy)-quinolin-4-yloxy]-2-methyl-phenyl}-2-trifluoromethoxy-benzenesulfonamide] the same measures were 186 to 188 °C and 2500 nM.
In turn, `COc1cc2c(Oc3ccc(NS(=O)(=O)c4ccccc4C#N)cc3F)ccnc2cc1OCCCN1CCC(C)CC1` [Example D23, 2-Cyano-N-(3-fluoro-4-{6-methoxy-7-[3-(4-methyl-piperidin-1-yl)-propoxy]-quinolin-4-yloxy}-phenyl)-benzenesulfonamide] gave a melting point of 139 to 142 °C. In data set [1], the concentration for half-maximal inhibition (IC50) is 211 nM.
In the case of `Cc1cc(Oc2ccc(NS(=O)(=O)c3cccc(-c4ncccn4)c3)c(F)c2)c2cccc(C(F)(F)F)c2n1` [Example C16, N-[2-Fluoro-4-(2-methyl-8-trifluoromethyl-quinolin-4-yloxy)-phenyl]-3-pyrimidin-2-yl-benzenesulfonamide], the melting point lay within 219 to 220 °C. Moreover, in data set [1], the IC50 was over 10000 nM.
Compound `COc1cc2nccc(Oc3ccc(NS(=O)(=O)c4cccc(Oc5ccccc5)c4)cc3C)c2cc1OC` [Example A76, N-[4-(6,7-Dimethoxy-quinolin-4-yloxy)-3-methyl-phenyl]-3-phenoxy-benzenesulfonamide] came in with a melting point of 115 to 117 °C. Also, the 50% inhibitory concentration (IC50) in data set [1] is over 10000 nM.
